Experimental data published in ChEMBL document CHEMBL5505960, “Synthesis and evaluation of butylphthalide-scutellarein hybrids as multifunctional agents for the treatment of Alzheimer's disease” (Eur J Med Chem, 2024).
Active and inactive are the calls of the source. No cut-off for these calls is given here.

How the values were obtained:
HT-22 [1] = test: Neuroprotective activity against amyloid beta (1 to 42)-induced injury in mouse HT-22 cells assessed as increase in cell viability at 2.5 uM incubated for 24 hrs by MTT assay relative to control; format: functional
Mus musculus [2] = test: Neuroprotective activity in Sodium nitrite induced cognition impairement in C57BL/6 mouse model assessed as increase in SOD activity at 9.9 mg/kg, IG administered daily for 7 days; format: functional; conditions: time 7 day
BV-2 [3] = test: Antineuroinflammatory activity in LPS-induced mouse BV-2 cells assessed as inhibition of TNF-alpha release at 0.5 uM preincubated for 30 mins followed by LPS stimulation and measured after 24 hrs relative to control; format: functional; parameters: scale not given: the % may be the effect or the level left; conditions: time 24.5 hrs
Mus musculus [4] = test: Neuroprotective activity against Abeta42 induced cognition impairement in AD mouse model assessed as improvement in latency time at 1.1 to 9.9 mg/kg, IG administered daily for 7 days by passive avoidance test; format: functional, organism-based; conditions: dose 1.1-9.9 mg/kg, time 7.0 day
[5] = Antioxidant activity assessed as inhibition of Cu2+-induced ROS production by measuring decrease in fluorescence intensity in presence of Cu2+ and ascorbate; format: functional
[6] = Half life in Balb/C mouse plasma at 30 mg/kg, IG measured upto 8 hrs by LC-MS analysis; format: ADME, organism-based; conditions: po
[7] = target: Amyloid-beta precursor protein (Homo sapiens) (UniProt P05067); test: Disaggregation of self-induced amyloid beta (1 to 42) (unknown origin) fibrils at 25 uM by ThT fluorescence assay relative to control
[8] = Metal chelating activity assessed as compound-Cu2+ complex formation by measuring bathochromic shift at 301 to 345nm in the presence of CuCl2 by UV-Visible spectrophotometric analysis
[9] = target: Amyloid-beta precursor protein (Homo sapiens) (UniProt P05067); test: Inhibition of amyloid beta (1 to 42) (unknown origin) fibrillation assessed as reduction in Cu2+ induced thick fibrils at 25 uM measured after 24 hrs by TEM analysis
Mus musculus [10] = test: Neuroprotective activity in Sodium nitrite induced cognition impairement in C57BL/6 mouse model assessed as increase in SOD activity administered daily as IG for 7 days; format: functional, organism-based; conditions: dose 1.1-9.9 mg/kg, time 7.0 day
Mus musculus [11] = test: Neuroprotective activity in Sodium nitrite induced cognition impairement in C57BL/6 mouse model assessed as decrease in MAD level administered daily as IG for 7 days; format: functional, organism-based; conditions: dose 1.1-9.9 mg/kg, time 7.0 day
[12] = Metal chelating activity assessed as compound-Cu2+ complex formation at stoichiometric ratio of 1:1 in presence of CuCl2 by UV-Vis spectrometry
HT-22 [13] = test: Neuroprotective activity against amyloid beta (1 to 42)-induced cell injury in mouse HT-22 cells assessed as reversal of reduction in cell numbers at 2.5 to 10 uM measured after 24 hrs by MTT assay; format: functional, cell-based; conditions: dose 2.5-10 µM
BV-2 [14] = test: Antineuroinflammatory activity in LPS-induced mouse BV-2 cells assessed as inhibition of NO release at 0.5 uM preincubated for 30 mins followed by LPS stimulation and measured after 24 hrs relative to control; format: functional; parameters: scale not given: the % may be the effect or the level left; conditions: time 24.5 hrs
PC-12 [15] = test: Neuroprotective activity against H2O2 induced rat PC12 cells assessed as increase in cell viability at 1 uM measured after 24 hrs by MTT assay relative to control; format: functional
Mus musculus [16] = test: Neuroprotective activity in Sodium nitrite induced cognition impairement in C57BL/6 mouse model assessed as decrease in MAD level at 9.9 mg/kg, IG administered daily for 7 days; format: functional; conditions: time 7 day
Mus musculus [17] = test: Neuroprotective activity in Sodium nitrite induced cognition impairement in C57BL/6 mouse model assessed as decrease in MAD activity at 5.0 mg/kg, IG administered daily for 7 days; format: functional, organism-based; conditions: time 7.0 day
BV-2 [18] = test: Antineuroinflammatory activity in LPS-induced mouse BV-2 cells assessed as inhibition of ROS production preincubated for 30 mins followed by LPS stimulation and measured after 8 hrs by DCFH-DA staining based analysis; format: functional, cell-based; conditions: dose 2.5-10 µM, time 8.5 hrs
[19] = Ratio of AUC (0 to t) in Balb/C mouse brain at 30 mg/kg, IG measured upto 8 hrs by LC-MS analysis; format: ADME, organism-based; conditions: po
[20] = Cmax in Balb/C mouse brain at 30 mg/kg, IG measured upto 8 hrs by LC-MS analysis; format: ADME, organism-based; conditions: po
Mus musculus [21] = test: Neuroprotective activity in Sodium nitrite induced cognition impairement in C57BL/6 mouse model assessed as reduction in number of error time at 1.1 to 9.9 mg/kg, IG administered daily for 7 days; format: functional, organism-based; conditions: dose 1.1-9.9 mg/kg, time 7.0 day
BV-2 [22] = test: Antineuroinflammatory activity in LPS-induced mouse BV-2 cells assessed as inhibition of IL-1 beta release at 10 uM preincubated for 30 mins followed by LPS stimulation and measured after 24 hrs relative to control; format: functional; parameters: scale not given: the % may be the effect or the level left; conditions: time 24.5 hrs
[23] = Metal chelating activity assessed as compound-Al3+ complex formation by measuring hyperchromic shift in the presence of AlCl3 by UV-Visible spectrophotometric analysis
[24] = target: Amyloid-beta precursor protein (Homo sapiens) (UniProt P05067); test: Inhibition of amyloid beta (1 to 42) (unknown origin) fibrillation assessed as reduction in Cu2+ induced shorter fibrils at 25 uM measured after 24 hrs by TEM analysis
BV-2 [25] = test: Antineuroinflammatory activity in LPS-induced mouse BV-2 cells assessed as inhibition of TNF-alpha release at 10 uM preincubated for 30 mins followed by LPS stimulation and measured after 24 hrs relative to control; format: functional; parameters: scale not given: the % may be the effect or the level left; conditions: time 24.5 hrs
PC-12 [26] = test: Neuroprotective activity against H2O2 induced rat PC12 cells assessed as increase in cell viability at 25 uM measured after 24 hrs by MTT assay relative to control; format: functional
[27] = Metal chelating activity assessed as compound-Fe2+ complex formation by measuring hyperchromic shift in the presence of FeSO4 by UV-Visible spectrophotometric analysis
BV-2 [28] = test: Cytotoxicity against mouse BV-2 cells at upto 10 uM measured after 24 hrs by MTT assay; format: toxicity, cell-based; conditions: bv-2, 24 h
[29] = target: Amyloid-beta precursor protein (Homo sapiens) (UniProt P05067); test: Inhibition of amyloid beta (1 to 42) (unknown origin) fibrillation assessed as short amyloid beta fibrils at 25 uM measured after 24 hrs by TEM analysis

Amyloid-beta precursor protein (Homo sapiens), sequence (P05067 whole entry): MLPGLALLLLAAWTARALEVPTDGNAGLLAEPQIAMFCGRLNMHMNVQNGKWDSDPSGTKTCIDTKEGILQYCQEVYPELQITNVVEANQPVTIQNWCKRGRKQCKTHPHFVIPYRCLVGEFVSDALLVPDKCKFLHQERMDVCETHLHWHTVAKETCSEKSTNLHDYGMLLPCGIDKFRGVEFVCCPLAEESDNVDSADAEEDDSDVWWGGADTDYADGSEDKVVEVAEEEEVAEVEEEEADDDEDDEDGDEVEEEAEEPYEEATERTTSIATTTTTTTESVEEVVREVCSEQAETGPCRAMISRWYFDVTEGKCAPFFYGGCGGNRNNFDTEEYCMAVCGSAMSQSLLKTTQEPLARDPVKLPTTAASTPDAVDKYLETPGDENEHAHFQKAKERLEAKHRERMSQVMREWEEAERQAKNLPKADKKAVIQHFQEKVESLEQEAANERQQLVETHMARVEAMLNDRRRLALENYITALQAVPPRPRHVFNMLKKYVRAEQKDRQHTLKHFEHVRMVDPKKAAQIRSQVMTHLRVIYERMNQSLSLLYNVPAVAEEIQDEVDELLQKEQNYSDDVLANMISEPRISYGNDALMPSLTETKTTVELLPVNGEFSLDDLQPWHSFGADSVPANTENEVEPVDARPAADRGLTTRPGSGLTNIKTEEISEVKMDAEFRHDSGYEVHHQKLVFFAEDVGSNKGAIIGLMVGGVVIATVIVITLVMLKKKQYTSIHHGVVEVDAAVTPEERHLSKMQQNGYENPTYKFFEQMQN

With `CCCCCC1OC(=O)c2c1cc(OC)c(O)c2O` (centres undefined) the Activity (HT-22 [1]) was 76.3%, the Activity (Mus musculus [2]) was 193.1 U/mg and the Activity (BV-2 [3]) was 20%. The Activity (Mus musculus [4]) was “Active”, the Activity [5] was “Active” and the half-life [6] was 51 min. For the same compound, the Activity [7] was 42.5%, the Activity [8] was “Active” and the inhibition [9] was “Active”. For the same compound, the Activity (Mus musculus [10]) was “Dose-Dependent Effect”, the Activity (Mus musculus [11]) was “Dose-Dependent Effect” and the Activity [12] was “Active”. The Activity (HT-22 [13]) was “Active”, the Activity (BV-2 [14]) was 31.1% and the Activity (PC-12 [15]) was 68.1%. The Activity (Mus musculus [16]) was 2.8 nmol/mg, the Activity (Mus musculus [17]) was “inactive” and the Activity (BV-2 [18]) was “Dose-Dependent Effect”. For the same compound, the Kp at 8 h [19] was 0.8, the Cmax [20] was 337 ng/mL and the Activity (Mus musculus [21]) was “Active”. For the same compound, the Activity (BV-2 [22]) was 62.9%, the Activity [23] was “Active” and the inhibition [24] was “Active”. For the same compound, the Activity (BV-2 [25]) was 75.8%, the Activity (PC-12 [26]) was 83.9% and the Activity [27] was “Active”. For the same compound, the Activity (BV-2 [28]) was “Non-Toxic” and the inhibition [29] was “Active”.
